Values quoted from earlier work in patent US20230065964A1, “COMPOSITION FOR ENHANCING UROLITHIN PRODUCTION IN A HUMAN SUBJECT” (Migalis ApS, priority 2020, published 2023).

Tests used:
[1] = tested on: Chaenorhabditis elegans; details: for Pharyngeal pumping rate and mobility: during aging
[2] = tested on: old mice
[3] = tested on: skeletal muscle of humans; details: 28 days oral administration, 500 mg/d and 1000 mg/d

Structure (SMILES)	Pharyngeal pumping rate and mobility [1]	mitochondrial biogenesis ([1]; older worms)	mitophagy ([1]; throughout the duration of the treatment)	Lean muscle mass [2]	greater level of spontaneous exercise (muscle function) [2] [%]	greater running endurance (endurance capacity) [2] [%]	expression of autophagy and mitophagy transcripts ([2]; molecular level)	mitochondrial biogenesis in the skeletal muscle [3]
O=c1oc2cc(O)ccc2c2cc(O)c(O)cc12 [urolithin C]	mild to no benefit							
O=c1oc2c(O)c(O)ccc2c2cc(O)c(O)cc12 [urolithin D]	mild to no benefit							
O=c1oc2cc(O)ccc2c2ccc(O)cc12 [Urolithin A, urolithin A]	improved	activated	activated mitophagy	did not increase	57	42	general tendency for a higher expression	stimulated
